In patent US20090239840A1, “AMINO SUBSTITUTED DIARYL[a,d]CYCLOHEPTENE ANALOGS AS [sequence] AGONISTS AND METHODS OF TREATMENT OF NEUROPSYCHIATRIC DISORDERS” (ACADIA PHARMACEUTICALS, INC., priority 2003, published 2009):
pEC50: −log10 of the molar value. Like-named read-outs stand apart in the source and are kept apart here.

What was measured:
muscarinic M1 receptor = target: T1, muscarinic M1 receptor (Homo sapiens, UniProt P11229); assay: R-SAT functional screen, M1; assay type: cell-based; settings: for Emax: read-out: M1 eff (efficacy); for EC50: read-out: M1 pEC50 (converted)
T1 construct: expressed in transfected cells
T1 sequence (P11229 1-460): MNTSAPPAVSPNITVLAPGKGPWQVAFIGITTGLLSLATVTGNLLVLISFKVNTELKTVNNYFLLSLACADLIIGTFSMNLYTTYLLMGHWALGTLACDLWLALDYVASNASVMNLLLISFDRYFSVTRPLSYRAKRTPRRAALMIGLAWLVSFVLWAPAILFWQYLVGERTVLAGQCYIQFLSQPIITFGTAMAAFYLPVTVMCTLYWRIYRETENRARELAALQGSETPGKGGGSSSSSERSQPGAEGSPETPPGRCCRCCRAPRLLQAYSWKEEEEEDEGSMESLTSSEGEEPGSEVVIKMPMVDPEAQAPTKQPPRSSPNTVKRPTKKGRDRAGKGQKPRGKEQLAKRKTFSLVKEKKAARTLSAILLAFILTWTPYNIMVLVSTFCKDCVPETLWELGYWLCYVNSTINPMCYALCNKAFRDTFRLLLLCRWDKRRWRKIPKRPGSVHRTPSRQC
Protocol: (§1) Several compounds disclosed herein were evaluated for activity at muscarinic receptors using Receptor Selection and Amplification Technology (R-SAT) as described in U.S. Pat. No. 5,707,798, the disclosure of which is incorporated herein by reference in its entirety. The efficacy (eff) and potency (expressed as pEC50) of these compounds are presented in Table 1 at M1, M2, and M3 receptors.

muscarinic M2 receptor = target: T2, muscarinic M2 receptor (Homo sapiens, UniProt P08172); assay: R-SAT functional screen, M2; assay type: cell-based; settings: for Emax: read-out: M2 eff (efficacy); for EC50: read-out: M2 pEC50 (converted)
T2 construct: expressed in transfected cells
T2 sequence (P08172 1-466): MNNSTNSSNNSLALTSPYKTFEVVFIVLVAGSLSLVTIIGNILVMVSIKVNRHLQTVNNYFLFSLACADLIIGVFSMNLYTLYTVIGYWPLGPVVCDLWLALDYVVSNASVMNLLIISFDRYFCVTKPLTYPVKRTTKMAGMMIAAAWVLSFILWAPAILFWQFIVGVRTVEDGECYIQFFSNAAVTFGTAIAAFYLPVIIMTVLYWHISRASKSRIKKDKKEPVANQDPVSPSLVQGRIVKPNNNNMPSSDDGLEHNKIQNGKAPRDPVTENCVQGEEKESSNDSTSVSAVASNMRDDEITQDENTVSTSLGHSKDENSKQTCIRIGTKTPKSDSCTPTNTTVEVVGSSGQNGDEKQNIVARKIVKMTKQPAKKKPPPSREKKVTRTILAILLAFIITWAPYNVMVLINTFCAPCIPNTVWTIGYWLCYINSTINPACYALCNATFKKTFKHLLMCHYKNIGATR
Protocol: as §1

SMILES: CN1c2ccc(Br)cc2N=C(N2CCNCC2)c2ccccc21 [8-Bromo-5-methyl-11-(piperazin-1-yl)-5H-dibenzo[b,e][1,4]diazepine]
- Emax (muscarinic M1 receptor; R-SAT): 92%
- EC50 (muscarinic M1 receptor; R-SAT): 0.398 µM
- Emax (muscarinic M2 receptor; R-SAT): 75%
- EC50 (muscarinic M2 receptor; R-SAT): 2.51 µM

SMILES: Clc1ccc2c(c1)N=C(N1CCNCC1)c1cc(I)ccc1N2 [2-Iodo-8-chloro-11-(piperazin-1-yl)-5H-dibenzo[b,e][1,4]diazepine]
- Emax (muscarinic M1 receptor; R-SAT): 3%
- Emax (muscarinic M2 receptor; R-SAT): 10%

SMILES: Clc1ccc2c(c1)N=C(N1CCNCC1)c1cc(Cl)ccc1N2 [2,8-Dichloro-11-(piperazin-1-yl)-5H-dibenzo[b,e][1,4]diazepine]
- Emax (muscarinic M1 receptor; R-SAT): 1%
- Emax (muscarinic M2 receptor; R-SAT): 24%

SMILES: c1ccc2c(c1)N=C(N1CCNCC1)c1ccccc1N2 [11-(piperazin-1-yl)-5H-dibenzo[b,e][1,4]diazepine]
- Emax (muscarinic M1 receptor; R-SAT): 38%
- EC50 (muscarinic M1 receptor; R-SAT): 0.794 µM
- Emax (muscarinic M2 receptor; R-SAT): 70%
- EC50 (muscarinic M2 receptor; R-SAT): 2.51 µM

SMILES: C=CCN1c2ccc(Cl)cc2N=C(N2CCNCC2)c2ccccc21 [5-Allyl-8-chloro-11-(piperazin-1-yl)-5H-dibenzo[b,e][1,4]diazepine]
- Emax (muscarinic M1 receptor; R-SAT): 12%
- Emax (muscarinic M2 receptor; R-SAT): 46%
- EC50 (muscarinic M2 receptor; R-SAT): 1.58 µM

SMILES: FC(F)(F)c1ccc2c(c1)N=C(N1CCNCC1)c1cc(Cl)ccc1N2 [2-Chloro-11-(piperazin-1-yl)-8-trifluoromethyl-5H-dibenzo[b,e][1,4]diazepine]
- Emax (muscarinic M1 receptor; R-SAT): 10%
- Emax (muscarinic M2 receptor; R-SAT): 19%

SMILES: COc1ccc2c(c1)C(N1CCNCC1)=Nc1cc(Cl)ccc1N2 [8-Chloro-2-methoxy-11-(piperazin-1-yl)-5H-dibenzo[b,e][1,4]diazepine]
- Emax (muscarinic M1 receptor; R-SAT): 7%
- Emax (muscarinic M2 receptor; R-SAT): 7%

SMILES: O=S(=O)(Oc1ccc2c(c1)C(N1CCNCC1)=Nc1cc(Cl)ccc1N2)C(F)(F)F [8-Chloro-2-(trifluoromethanesulfonyloxy)-11-(piperazin-1-yl)-5H-dibenzo[b,e][1,4]diazepine]
- Emax (muscarinic M1 receptor; R-SAT): -2%
- Emax (muscarinic M2 receptor; R-SAT): 16%

SMILES: NC1CCN(C2=Nc3cc(Cl)ccc3Nc3ccccc32)C1 (stereo not shown) [1-(8-Chloro-5H-dibenzo[b,e][1,4]diazepin-11-yl)-pyrrolidin-3-yl-amine]
- Emax (muscarinic M1 receptor; R-SAT): 8%
- Emax (muscarinic M2 receptor; R-SAT): 36%
- EC50 (muscarinic M2 receptor; R-SAT): 3.16 µM

SMILES: Clc1ccc2c(c1)N=C(N1CCNCC1)c1ccccc1O2 [8-Chloro-11-(piperazin-1-yl)-dibenzo[b,f][1,4]oxazepine]
- Emax (muscarinic M1 receptor; R-SAT): 52%
- EC50 (muscarinic M1 receptor; R-SAT): 0.1 µM
- Emax (muscarinic M2 receptor; R-SAT): 58%
- EC50 (muscarinic M2 receptor; R-SAT): 1 µM

SMILES: CN(C)CCNC1=Nc2ccccc2Nc2ccccc21 [N′-(5H-Dibenzo[b,e][1,4]diazepine-11-yl)-N,N-dimethyl-ethane-12-diamine]
- Emax (muscarinic M1 receptor; R-SAT): 10%
- Emax (muscarinic M2 receptor; R-SAT): 20%

SMILES: Clc1ccc2c(c1)Nc1ccccc1N=C2N1CCNCC1 [3-Chloro-11-(piperazin-1-yl)-5H-dibenzo[b,e][1,4]diazepine]
- Emax (muscarinic M1 receptor; R-SAT): 16%
- Emax (muscarinic M2 receptor; R-SAT): 27%
- EC50 (muscarinic M2 receptor; R-SAT): 2 µM

SMILES: O=S(=O)(Oc1ccc2c(c1)C(N1CCNCC1)=Nc1ccccc1N2)C(F)(F)F [2-(Trifluoromethanesulfonyloxy)-11-(piperazin-1-yl)-5H-dibenzo[b,e][1,4]diazepine]
- Emax (muscarinic M1 receptor; R-SAT): -8%
- Emax (muscarinic M2 receptor; R-SAT): 9%

SMILES: Clc1ccc2c(c1)N=C(N1CCNCC1)c1ccccc1S2 [8-Chloro-11-(piperazin-1-yl)-dibenzo[b,f][1,4]thiazepine]
- Emax (muscarinic M1 receptor; R-SAT): 11%
- Emax (muscarinic M2 receptor; R-SAT): 52%
- EC50 (muscarinic M2 receptor; R-SAT): 1.26 µM

SMILES: Fc1ccc2c(c1)N=C(N1CCNCC1)c1ccccc1N2 [8-Fluoro-11-(piperazin-1-yl)-5H-dibenzo[b,e][1,4]diazepine]
- Emax (muscarinic M1 receptor; R-SAT): 32%
- EC50 (muscarinic M1 receptor; R-SAT): 0.2 µM
- Emax (muscarinic M2 receptor; R-SAT): 95%
- EC50 (muscarinic M2 receptor; R-SAT): 2 µM

SMILES: Clc1ccc2c(c1)N=C(N1CC3CC1CN3)c1ccccc1N2 (stereo not shown) [8-Chloro-11-(2,5-diaza-bicyclo[2.2.1]hept-2-yl)-5H-dibenzo[b,e][1,4]diazepine]
- Emax (muscarinic M1 receptor; R-SAT): 34%
- EC50 (muscarinic M1 receptor; R-SAT): 0.251 µM
- Emax (muscarinic M2 receptor; R-SAT): 49%
- EC50 (muscarinic M2 receptor; R-SAT): 2.51 µM

SMILES: Clc1ccc2c(c1)N=C(c1ccncc1)c1ccccc1N2 [8-Chloro-11-(pyridin-4-yl)-5H-dibenzo[b,e][1,4]diazepine]
- Emax (muscarinic M1 receptor; R-SAT): 6%
- Emax (muscarinic M2 receptor; R-SAT): 6%

SMILES: CN(C)CCNC1=Nc2cc(Cl)ccc2Nc2ccccc21 [N′-(8-Chloro-5H-dibenzo[b,e][1,4]diazepine-11-yl)-N,N-dimethyl-ethane-1,2-diamine]
- Emax (muscarinic M1 receptor; R-SAT): 4%
- Emax (muscarinic M2 receptor; R-SAT): 11%

SMILES: C[C@@H]1CN(C2=Nc3cc(Cl)ccc3Nc3ccccc32)[C@@H](C)CN1 (relative stereo) [8-Chloro-11-(trans-2,5-dimethyl-piperazin-1-yl)-5H-dibenzo[b,e][1,4]diazepine]
- Emax (muscarinic M1 receptor; R-SAT): 8%
- Emax (muscarinic M2 receptor; R-SAT): 24%

SMILES: CN1CCN(C2=Nc3cc(Cl)ccc3Oc3ccccc32)CC1 [8-Chloro-11-(4-methyl-piperazin-1-yl)-dibenzo[b,f][1,4]oxazepine]
- Emax (muscarinic M1 receptor; R-SAT): 13%
- Emax (muscarinic M2 receptor; R-SAT): 46%
- EC50 (muscarinic M2 receptor; R-SAT): 1.58 µM

SMILES: CN1CCCN(C2=Nc3cc(Cl)ccc3Nc3ccccc32)CC1 [8-Chloro-11-(4-methyl-[1,4]diazepam-1-yl)-5H-dibenzo[b,e][1,4]diazepine]
- Emax (muscarinic M1 receptor): 18%
- pEC50 (muscarinic M2 receptor): 5.90
- Emax (muscarinic M2 receptor): 50%

SMILES: Clc1ccc2c(c1)N=C(NC1CCNC1)c1ccccc1N2 (stereo not shown) [(8-Chloro-5H-dibenzo[b,e][1,4]diazepin-11-yl)-pyrrolidin-3-yl-amine]
- Emax (muscarinic M1 receptor; R-SAT): 10%
- Emax (muscarinic M2 receptor; R-SAT): 18%

SMILES: Cc1ccc2c(c1)C(N1CCNCC1)=Nc1cc(Cl)ccc1N2 [8-Chloro-2-methyl-11-(piperazin-1-yl)-5H-dibenzo[b,e][1,4]diazepine]
- Emax (muscarinic M1 receptor; R-SAT): 14%
- Emax (muscarinic M2 receptor; R-SAT): 28%
- EC50 (muscarinic M2 receptor; R-SAT): 1.26 µM

SMILES: Fc1ccc(C2=Nc3cc(Cl)ccc3Nc3ccccc32)cc1 [8-Chloro-11-(4-fluorophenyl)-5H-dibenzo[b,e][1,4]diazepine]
- Emax (muscarinic M1 receptor; R-SAT): 13%
- Emax (muscarinic M2 receptor; R-SAT): 4%

SMILES: CC1CN(C2=Nc3cc(Cl)ccc3Nc3ccccc32)CC(C)N1 (stereo not shown) [8-Chloro-11-(3,5-dimethyl-piperazin-1-yl)-5H-dibenzo[b,e][1,4]diazepine]
- Emax (muscarinic M1 receptor; R-SAT): 18%
- Emax (muscarinic M2 receptor; R-SAT): 97%
- EC50 (muscarinic M2 receptor; R-SAT): 2.51 µM

SMILES: Cc1ccc2c(c1)C(N1CCNCC1)=Nc1ccc(Cl)cc1N2 [7-Chloro-2-methyl-11-(piperazin-1-yl)-5H-dibenzo[b,e][1,4]diazepine]
- Emax (muscarinic M1 receptor; R-SAT): -3%
- Emax (muscarinic M2 receptor; R-SAT): 5%

SMILES: CCCCCCCCCc1ccc(C2=Nc3cc(Cl)ccc3Nc3ccccc32)cc1 [8-Chloro-11-(4-nonylphenyl)-5H-dibenzo[b,e][1,4]diazepine]
- Emax (muscarinic M1 receptor; R-SAT): 1%
- Emax (muscarinic M2 receptor; R-SAT): 8%

SMILES: Clc1ccc2c(c1)N=C(NC[C@@H]1CCCN1)c1ccccc1N2 [(8-Chloro-5H-dibenzo[b,e][1,4]diazepin-11-yl)-(S)-1-pyrrolidin-2-yl-methyl-amine]
- Emax (muscarinic M1 receptor; R-SAT): 77%
- EC50 (muscarinic M1 receptor; R-SAT): 0.501 µM
- Emax (muscarinic M2 receptor; R-SAT): 23%

SMILES: Clc1ccc2c(c1)N=C(N1CCNC(c3ccccc3)C1)c1ccccc1N2 (stereo not shown) [8-Chloro-11-(3-phenyl-piperazin-1-yl)-5H-dibenzo[b,e][1,4]diazepine]
- Emax (muscarinic M1 receptor; R-SAT): 5%
- Emax (muscarinic M2 receptor; R-SAT): 23%

SMILES: Clc1ccc2c(c1)C(N1CCNCC1)=Nc1cc(Br)ccc1N2 [8-Bromo-2-chloro-11-(piperazin-1-yl)-5H-dibenzo[b,e][1,4]diazepine]
- Emax (muscarinic M1 receptor; R-SAT): 10%
- Emax (muscarinic M2 receptor; R-SAT): 29%
- EC50 (muscarinic M2 receptor; R-SAT): 3.16 µM

SMILES: FC(F)(F)c1ccc2c(c1)N=C(N1CCNCC1)c1ccc(Cl)cc1N2 [3-Chloro-11-(piperazin-1-yl)-8-trifluoromethyl-5H-dibenzo[b,e][1,4]diazepine]
- Emax (muscarinic M1 receptor; R-SAT): 11%

SMILES: COc1ccc2c(c1)Oc1ccc(C(F)(F)F)cc1N=C2N1CCNCC1 [3-Methoxy-11-(piperazin-1-yl)-8-trifluoromethyl-dibenzo[b,f][1,4]oxazepine]
- Emax (muscarinic M2 receptor; R-SAT): 17%

SMILES: Cc1cccc2c1Oc1ccccc1N=C2N1CCNCC1 [4-Methyl-11-(piperazin-1-yl)-dibenzo[b,f][1,4]oxazepine]
- Emax (muscarinic M2 receptor; R-SAT): 22%

SMILES: Clc1ccc2c(c1)N=C(N1CCNCC1)c1cc(Br)ccc1O2 [2-Bromo-8-chloro-11-(piperazin-1-yl)-dibenzo[b,f][1,4]oxazepine]
- Emax (muscarinic M2 receptor; R-SAT): 13%

SMILES: Fc1ccc2c(c1)N=C(N1CCNCC1)c1cc(Br)ccc1O2 [2-Bromo-8-fluoro-11-(piperazin-1-yl)-dibenzo[b,f][1,4]oxazepine]
- Emax (muscarinic M2 receptor; R-SAT): 21%

SMILES: Brc1ccc2c(c1)N=C(N1CCNCC1)c1cc(Br)ccc1O2 [2,8-Dibromo-11-(piperazin-1-yl)-dibenzo[b,f][1,4]oxazepine]
- Emax (muscarinic M2 receptor; R-SAT): 6%

SMILES: Cc1cccc2c1Oc1ccc(Br)cc1N=C2N1CCNCC1 [8-Bromo-4-methyl-11-(piperazin-1-yl)-dibenzo[b,f][1,4]oxazepine]
- Emax (muscarinic M2 receptor; R-SAT): 48%
- EC50 (muscarinic M2 receptor; R-SAT): 1.58 µM
